Assays:
macrophages = experiment: Cholesterol uptake in macrophages (fluorescently labeled cholesterol); format: cell-based, mouse; details: AMG-18 10 μM 1 hour pre-treatment, labeled cholesterol 4 hours
BMDM = experiment: In vitro efferocytosis; format: cell-based, mouse
Text: FIGS. 3A-3G depict that FMRP-deficiency increases efferocytosis in vivo. (For all images scale bar=50 μm; Red: Macrophages, Green: AC/AC-1, Violet: AC-2. Data are mean±SEM. Unpaired t-test with Welch's correction. * P≤0.05, ** P≤0.01, *** P≤0.001.) • 3A-3E. In vitro and in vivo efferocytosis experiments, where percentage of macrophages F4/80^+ (red) that ingested apoptotic cells (AC) labeled with carboxyfluorescein succinimidyl ester (CFSE)^+ (green) were reported as % efferocytosis. • 3A. BMDMs were transfected with Fmr1- or control-siRNA and incubated CFSE-labeled AC for the indicated hours (n=4). • 3B. Fmr1^+/+ and Fmr1^−/− BMDMs were treated with PA (500 μM) for 6 hours and then incubated with CFSE-labeled ACs for 4 hours (n=4). • 3C. Fmr1^+/+ and Fmr1^−/− mice were fed WD (16 weeks) and injected intraperitoneally with CFSE-labeled AC (1.5 hours), followed by PM elicitation (n=4-5). • 3D. BMDM were pre-treated either with vehicle (DMSO) or AMG-18 (5 μM) for 1 hour then incubated with CFSE-labeled ACs for 4 hours (n=4). • 3E. […] In vitro continuous efferocytosis experiments, where macrophages were stained for F4/80^+ (red), AC were labeled with CFSE (AC-1; green) or Violet (AC2; violet). % continuous efferocytosis was determined by the ratio of F4/80^+, CFSE^+ and Violet^+ (triple positive) cells to total F4/80^+/+ and CFSE^+ (double positive) cells. • 3F. […]

For Cc1ccc2c(NS(=O)(=O)c3ccccc3Cl)cccc2c1Oc1ncccc1-c1ccnc(N[C@H]2CCCNC2)n1 [AMG-18], the cholesterol uptake (macrophages) was “neither FMRP knock down nor IRE1 kinase inhibition altered”, the “continued efferocytosis of ACs” value (BMDM; AMG-18 5 μM 1 hour, AC-1 2 hours then AC-2 2 hours) was “enhanced” and the “efferocytosis of ACs” value (BMDM; CFSE-labeled ACs, AMG-18 5 μM 1 hour then ACs 4 hours, siRNA transfected BMDM) was “increased”.

From patent publication US20250134889A1, “TARGETING IRE1 KINASE AND FMRP FOR PROPHYLAXIS, MANAGEMENT AND TREATMENT OF ATHEROSCLEROSIS” (CEDARS-SINAI MEDICAL CENTER, priority 2022, published 2025)
